Source: patent US8258311B2, “Human protein tyrosine phosphatase inhibitors and methods of use” (Aerpio Therapeutics Inc., priority 2006, dated 2012)

Assays:
Type in all cases: in vivo
[1] = test system: hindlimb ischemia; assay: Rat hindlimb model of collateral development: blood flow during treadmill exercise (microspheres); conditions: for Blood Flow During exercise Calf (GPS): mean ± SE
Description: The Rat hindlimb model is used to evaluate angiogenic properties of novel HPTPb inhibitors. Specifically to determine if there is enhanced blood flow to the collateral dependent region of the leg post ischemia when the animal is in an exercise challenged state. […] An initial surgery is done to create hindlimb ischemia and implant osmotic pumps essentially as previously described with minor alterations. […] Following induction, animals are transferred to a surgical mat and anesthesia is continued via a non-rebreathing circuit. A warming lamp is positioned above the rat and a rectal probe is placed to monitor the animal's body temperature. The groin areas bilaterally are clipped and prepared with alternating Betadine and alcohol scrubs (3×) and a sterile drape is placed over the rat. The left femoral artery is exposed through a skin incision and subsequently ligated in two positions 1 cm apart; distal to the inguinal ligament and proximal to the femoral circumflex artery. The skin is closed using either skin staples or Vetbond. The same procedure is repeated on the right side. […] Prior to implantation, osmotic pumps are filled with VEGF165 solution at a dose of 15 μg/kg/day, and primed overnight inside sterile saline beakers in a water bath (37° C.). Stretched PESO catheters coated with PPG (Poly propylene glycol Aldrich # 20-235-5) are attached using sterile technique and in accordance with manufacture's instructions the afternoon prior to surgery. For pump placement, an incision is made to expose the right jugular vein, an area is tunneled SubQ from the right side of the neck to the back and the pump is placed in the resulting SubQ pocket. The vessel is ligated with 4-0 silk, a cut is made in the vessel just distal to the tie and the catheter from the osmotic pump is threaded down stream (approx 2 cm) and secured with a second tie. The skin is closed in the same manner as above. Two weeks after the ligation surgery the rat underwent a second acute surgery to place indwelling catheters for microsphere measurements. Rats are anesthetized as described above. The animal is clipped, prepped, and EMLA cream is applied to each entry site. First an incision is made longitudinally at the ventral base of the tail using a 10 blade. A tapered PE 50 catheter is inserted approximately 3 cm into the ventral tail artery and anchored into place. The end of the catheter is then wrapped around the tail and tunneled SubQ over the back, exiting between the shoulder blades. Following tail artery cannulation, a midline neck incision is made to expose the left carotid artery for occlusive cannulation. A tapered PE 50 catheter is placed 3 cm into the carotid and the distal end is tunneled SubQ, exiting between the shoulder blades. The neck is closed with either skin stables or Vetbond and EMLA cream is applied. The exit site is closed around the catheters with a purse string suture stitch. The ends of the catheters are cauterized shut and the rat is allowed to recover from anesthesia for at least 4 hours. For blood flow measurements, rats are placed onto the treadmill and the catheters are connected to extension tubing via 22 gage male-male connectors. For microsphere withdrawals and blood pressure measurements, the tail artery catheter is connected to a syringe (coated with tween and heparin-), which is “T” Ed to a withdrawal pump and a pressure transducer. The carotid catheter is used for injecting the microspheres. The rat began running at speed 20 m/min and an elevation of 7°. […] The pump is set to stop at 90 seconds. The […] stopped, the extension lines are replaced and the animal's lines are flushed, and the animal allowed to rest. The syringe and lines are removed from the pump and the reference blood sample is place in a labeled tube for processing. […] At the completion of the second run, the animal is euthanized with 0.3 ml of Buthaneasia. Following euthanasia, tissues are removed, trimmed, weighed, recorded, and placed in marked tubes for processing. […]

[2] = Rat hindlimb model: blood pressure and heart rate; conditions: for Blood Pressure Post-Exercise / Heart Rate Exercise / Heart Rate Post-Exercise / Heart Rate Pre-Exercise / Blood Pressure Exercise / Blood Pressure Pre-Exercise: mean ± SE; for Blood Pressure Pre-Exercise: two weeks after ligation
Description: An initial surgery is done to create hindlimb ischemia and implant osmotic pumps essentially as previously described with minor alterations. […] Following induction, animals are transferred to a surgical mat and anesthesia is continued via a non-rebreathing circuit. A warming lamp is positioned above the rat and a rectal probe is placed to monitor the animal's body temperature. The groin areas bilaterally are clipped and prepared with alternating Betadine and alcohol scrubs (3×) and a sterile drape is placed over the rat. The left femoral artery is exposed through a skin incision and subsequently ligated in two positions 1 cm apart; distal to the inguinal ligament and proximal to the femoral circumflex artery. The skin is closed using either skin staples or Vetbond. The same procedure is repeated on the right side. […] Stretched PESO catheters coated with PPG (Poly propylene glycol Aldrich # 20-235-5) are attached using sterile technique and in accordance with manufacture's instructions the afternoon prior to surgery. For pump placement, an incision is made to expose the right jugular vein, an area is tunneled SubQ from the right side of the neck to the back and the pump is placed in the resulting SubQ pocket. The vessel is ligated with 4-0 silk, a cut is made in the vessel just distal to the tie and the catheter from the osmotic pump is threaded down stream (approx 2 cm) and secured with a second tie. The skin is closed in the same manner as above.
Two weeks after the ligation surgery the rat underwent a second acute surgery to place indwelling catheters for microsphere measurements. Rats are anesthetized as described above. The animal is clipped, prepped, and EMLA cream is applied to each entry site. First an incision is made longitudinally at the ventral base of the tail using a 10 blade. A tapered PE 50 catheter is inserted approximately 3 cm into the ventral tail artery and anchored into place. The end of the catheter is then wrapped around the tail and tunneled SubQ over the back, exiting between the shoulder blades. Following tail artery cannulation, a midline neck incision is made to expose the left carotid artery for occlusive cannulation. A tapered PE 50 catheter is placed 3 cm into the carotid and the distal end is tunneled SubQ, exiting between the shoulder blades. The neck is closed with either skin stables or Vetbond and EMLA cream is applied. The exit site is closed around the catheters with a purse string suture stitch. The ends of the catheters are cauterized shut and the rat is allowed to recover from anesthesia for at least 4 hours.
For blood flow measurements, rats are placed onto the treadmill and the catheters are connected to extension tubing via 22 gage male-male connectors. For microsphere withdrawals and blood pressure measurements, the tail artery catheter is connected to a syringe (coated with tween and heparin-), which is “T” Ed to a withdrawal pump and a pressure transducer. The carotid catheter is used for injecting the microspheres. The rat began running at speed 20 m/min and an elevation of 7°. One minute into the run the pump is turned on at a rate of 0.5 ml/min, ten seconds later 0.5 ml (1×10^6 spheres/mL) of florescent microspheres are infused into the carotid line followed by a 0.5 ml flush over 30 seconds. The pump is set to stop at 90 seconds. The tmill is stopped, the extension lines are replaced and the animal's lines are flushed, and the animal allowed to rest. The syringe and lines are removed from the pump and the reference blood sample is place in a labeled tube for processing. The withdrawal syringe and extension lines are flushed 3 times with 2% tween, waste is flushed the reference blood tube A new syringe and lines are place on the pump and the procedure is repeated with the animal running at a faster speed, (25 m/min) and a different microsphere color is injected. At the completion of the second run, the animal is euthanized with 0.3 ml of Buthaneasia.

[3] = Rat hindlimb model: body weight; conditions: mean ± SE, in g (unit assumed)
[4] = continuous SubQ infusion High 15 mg/kg/d
[5] = continuous SubQ infusion Low 5 mg/kg/d
[6] = continuous SubQ infusion High 15 mg/kg/d, in mmHg (unit assumed)

CCc1csc([C@H](Cc2ccc(NS(=O)(=O)O)cc2)NC(=O)[C@H](Cc2ccccc2)NC(=O)OC(C)(C)C)n1 [4-{(S)-2-[(S)-2-(tert-Butoxycarbonylamino)-3-phenylpropanamido]-2-(4-ethylthiazol-2-yl)ethyl}phenylsulfamic acid]
Calf blood flow as compared to vehicle ([1]; SubQ continuous infusion, both doses (5 mg/kg/d and 15 mg/kg/d)): significant improvement
Blood Flow During exercise Calf (GPS) [1, 4]: 75 ± 1.7 ml/min/100 g
Blood Flow During exercise Calf (GPS) [1, 5]: 69 ± 2.0 ml/min/100 g
Calf blood flow response relative to VEGF ([1]; lower dose (5 mg/kg/d)): did not elicit a maximal VEGF response
Blood pressures of the treatment groups ([2]; compared with VEGF and/or Vehicle groups): lower than the VEGF and/or Vehicle groups
Blood Pressure Post-Exercise [2, 4]: 133 ± 3.7
Heart Rate Exercise [2, 4]: 456 ± 13.0
Heart Rate Post-Exercise [2, 4]: 462 ± 14.8
Heart Rate Pre-Exercise [2, 4]: 428 ± 13.5
Blood Pressure Exercise [2, 6]: 144 ± 4.6
Blood Pressure Pre-Exercise [2, 6]: 137 ± 4.5
Blood Pressure Exercise [2, 5]: 142 ± 3.2
Heart Rate Exercise [2, 5]: 487 ± 10.1
Heart Rate Post-Exercise [2, 5]: 465 ± 18.8
Heart Rate Pre-Exercise [2, 5]: 429 ± 19.8
Blood Pressure Post-Exercise ([2]; continuous SubQ infusion Low 5 mg/kg/d, in mmHg (unit assumed)): 135 ± 3.1
Blood Pressure Pre-Exercise [2, 5]: 132 ± 3.9
Initial Body Wt ([3]; High 15 mg/kg/d group): 364 ± 4.8
Initial Body Wt ([3]; Low 5 mg/kg/d group): 365 ± 4.8
Ending Body Wt [3, 4]: 409 ± 5.5
Ending Body Wt [3, 5]: 413 ± 5.6
